Data on one compound can be found in ChEMBL document CHEMBL3832045, “DailyMed|setid=14ed9edd-bfd3-4fa4-9293-66666f779ba3 | TRIAMCINOLONE ACETONIDE - triamcinolone acetonide spray, metered|Physicians Total Care, Inc”.

The term Tmax denotes the time at which the peak concentration occurs. As a reminder, the half-life is how long it takes for the measured level to halve. Read a low half-life as rapid decline. As usually defined, the Cmax is the highest concentration seen after dosing. What is called AUC is the area under the concentration-time curve, a measure of exposure. For orientation: Vd means the apparent volume that relates the amount in the body to the concentration in plasma or blood. A high value points to extensive tissue distribution. What is called clearance is the volume of plasma or blood freed of the substance per unit of time.

What all share (assay type): ADME, organism-based
The nature of data set [1]: (§1) Pharmacokinetic parameters for triamcinolone acetonide evaluated after intranasal administration of triamcinolone acetonide nasal spray. The arrangement: dose 220 mcg, route intranasal, dose 110 to 440. As to conditions: human, in vivo, inhaled or intranasal, dosed compound id 47, dosed compound name TRIAMCINOLONE ACETONIDE, regimen Single dose, tissue Plasma.
Data set [2] relates to Homo sapiens. Described as §1. The arrangement: dose 220 mcg, route intranasal, dose 110 to 440. As to conditions: in vivo, inhaled_or_intranasal, dose 220 mcg, dosed compound id 47, dosed compound name TRIAMCINOLONE ACETONIDE, regimen Single dose, route intranasal, tissue Plasma.
A short description of data set [3]: Evaluation of pharmacokinetic parameters for triamcinolone acetonide following intravenous dosing of triamcinolone acetonide phosphate ester in adults. As to conditions: human, in vivo, dosed compound id 470, dosed compound name TRIAMCINOLONE ACETONIDE PHOSPHATE ESTER, tissue Plasma.

As for `CC1(C)O[C@@H]2C[C@H]3[C@@H]4CCC5=CC(=O)C=C[C@]5(C)[C@@]4(F)[C@@H](O)C[C@]3(C)[C@]2(C(=O)CO)O1` [TRIAMCINOLONE ACETONIDE], in data set [1] (dose 220 mcg, route intranasal), the Tmax turned out to be 1.5 h and the half-life was 3.1 h. In addition, the highest level in data set [1] (Cmax) was 0.5 ng/mL. Besides, in data set [1] (read-out: AUC(0 to inf)), the AUC lay in the range of 1.4 to 4.7 ng·h/mL. Besides, the t1/2 in data set [2] is 3.1 h. In data set [3], the volume of distribution (Vd) was found to be 99.5 L, the clearance was 753 mL/min and the half-life worked out at 1.47 h.
